From patent US8765741B2, “5,6-dihydro-1H-pyridin-2-one compounds” (Anadys Pharmaceuticals, Inc., priority 2007, dated 2014) come the findings set out here.

The test addresses NS5B polymerase (Hepatitis C virus genotype 1b, UniProt P26663). Put plainly: biochemical. On the procedure: Compounds were tested for HCV polymerase inhibition. Assays were performed in a 96-well streptavidin-coated FlashPlate using 20 nM enzyme, 0.5 μCi of [α-^33P]GTP, 0.6 μM GTP, and 250 nM 5′biotinylated oligo (rG13)/poly rC in 20 mM Tris-HCl, pH 7.5, 5 mM MgCl2, 5 mM dithiothreitol, 0.1 g/L bovine serum albumin, and 100 U/mL RNAse inhibitor. The reaction was stopped by aspiration after 75 min at 28° C. and the plate was washed several times. After washing and drying the plate, incorporated radioactivity was counted using a Microbeta scintillation counter. IC50 values were calculated relative to the uninhibited control and inhibition data were fitted to a 4-parameter IC50 equation.

Setting [1] is: NS5B polymerase inhibition, 20 nM enzyme, 75 min at 28° C., read-out: IC50.

Like-named read-outs stand apart in the source and are kept apart here. Where only a bound is given, the exact number is not on record here.

NS5B polymerase, sequence (P26663 2420-3010): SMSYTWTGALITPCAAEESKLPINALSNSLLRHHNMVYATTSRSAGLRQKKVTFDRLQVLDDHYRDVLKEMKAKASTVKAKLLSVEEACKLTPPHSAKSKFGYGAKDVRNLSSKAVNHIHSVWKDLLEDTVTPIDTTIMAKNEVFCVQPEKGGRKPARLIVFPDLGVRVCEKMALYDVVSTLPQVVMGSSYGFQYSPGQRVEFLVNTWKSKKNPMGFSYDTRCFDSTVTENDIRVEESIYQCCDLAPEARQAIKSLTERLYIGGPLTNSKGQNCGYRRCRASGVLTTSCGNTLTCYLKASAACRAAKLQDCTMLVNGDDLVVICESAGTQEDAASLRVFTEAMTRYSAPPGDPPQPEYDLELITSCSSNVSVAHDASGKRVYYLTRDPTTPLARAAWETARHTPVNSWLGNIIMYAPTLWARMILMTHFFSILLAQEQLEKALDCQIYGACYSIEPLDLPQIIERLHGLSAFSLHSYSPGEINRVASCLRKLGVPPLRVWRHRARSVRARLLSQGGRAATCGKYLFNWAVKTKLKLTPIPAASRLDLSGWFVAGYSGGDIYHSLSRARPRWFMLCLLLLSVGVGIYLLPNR

As a reminder, the IC50 is the point on the concentration scale where inhibition reaches its midpoint. Consider `CS(=O)(=O)Nc1ccc2c(c1)S(=O)(=O)N=C(C1=C(O)C3C4CCC(C4)C3N(Cc3ccc(F)cc3)C1=O)N2` (racemic) [Example 1, (rac-di-exo)-N-{3-[3-(4-Fluoro-benzyl)-6-hydroxy-4-oxo-3-aza-tricyclo[6.2.1.0^2,7]undec-5-en-5-yl]-1,1-dioxo-1,4-dihydro-1λ^6-benzo[1,2,4]thiadiazin-7-yl}-methanesulfonamide], for which the IC50 is less than 0.02 µM.

Turning to `CS(=O)(=O)Nc1ccc2c(c1)S(=O)(=O)N=C(C1=C(O)C3C4CCC(C4)C3N(Cc3ccc(F)cc3)C1=O)N2` (racemic) [Example 2, (rac-di-endo)-N-{3-[3-(4-Fluoro-benzyl)-6-hydroxy-4-oxo-3-aza-tricyclo[6.2.1.0^2,7]undec-5-en-5-yl]-1,1-dioxo-1,4-dihydro-1λ^6-benzo[1,2,4]thiadiazin-7-yl}-methanesulfonamide], the IC50 (NS5B polymerase inhibition, 20 nM enzyme, 75 min at 28° C.) was less than 0.02 µM. As to `CS(=O)(=O)Nc1ccc2c(c1)S(=O)(=O)N=C(C1=C(O)C3C4CCC(C4)C3N(Cc3ccc(F)cn3)C1=O)N2` (racemic) [Example 3, (rac-di-endo)-N-{3-[3-(5-Fluoro-pyridin-2-ylmethyl)-6-hydroxy-4-oxo-3-aza-tricyclo[6.2.1.0^2,7]undec-5-en-5-yl]-1,1-dioxo-1,4-dihydro-1λ^6-benzo[1,2,4]thiadiazin-7-yl}-methanesulfonamide], the IC50 under setting [1] lay in the range of 0.1 to 1 µM. The same measure, in the same setting: the figure for `CS(=O)(=O)Nc1ccc2c(c1)S(=O)(=O)N=C(C1=C(O)C3C4CCC(O4)C3N(Cc3ccc(F)cc3)C1=O)N2` (racemic) [Example 8, (rac-di-exo)-N-{3-[3-(4-Fluoro-benzyl)-6-hydroxy-4-oxo-11-oxa-3-aza-tricyclo[6.2.1.0^2,7]undec-5-en-5-yl]-1,1-dioxo-1,4-dihydro-1λ^6-benzo[1,2,4]thiadiazin-7-yl}-methanesulfonamide] is less than 0.02 µM. Regarding `CS(=O)(=O)Nc1ccc2c(c1)S(=O)(=O)N=C(C1=C(O)C3C4C=CC(C4)C3N(Cc3ccc(F)cc3)C1=O)N2` (racemic) [Example 9, (rac-di-exo)-N-{3-[3-(4-Fluoro-benzyl)-6-hydroxy-4-oxo-3-aza-tricyclo[6.2.1.0^2,7]undeca-5,9-dien-5-yl]-1,1-dioxo-1,4-dihydro-1λ^6-benzo[1,2,4]thiadiazin-7-yl}-methanesulfonamide], the IC50 under setting [1] lay in the range of 0.02 to 0.1 µM. In the case of `CS(=O)(=O)Nc1ccc2c(c1)S(=O)(=O)N=C(C1=C(O)C3C4C=CC(C4)C3N(Cc3ccc(F)cc3)C1=O)N2` (racemic) [Example 10, (rac-di-endo)-N-{3-[3-(4-Fluoro-benzyl)-6-hydroxy-4-oxo-3-aza-tricyclo[6.2.1.0^2,7]undeca-5,9-dien-5-yl]-1,1-dioxo-1,4-dihydro-1λ^6-benzo[1,2,4]thiadiazin-7-yl}-methanesulfonamide], under setting [1], the half-maximal inhibitory concentration (IC50) fell in the range of 0.02 to 0.1 µM. With `Cc1cc(CN2C(=O)C(C3=NS(=O)(=O)c4cc(NS(C)(=O)=O)ccc4N3)=C(O)C3C4CCC(O4)C32)ccc1F` (racemic) [Example 12, (rac-di-exo)-N-{3-[3-(4-Fluoro-3-methyl-benzyl)-6-hydroxy-4-oxo-11-oxa-3-aza-tricyclo[6.2.1.0^2,7]undec-5-en-5-yl]-1,1-dioxo-1,4-dihydro-1λ^6-benzo[1,2,4]thiadiazin-7-yl}-methanesulfonamide], the IC50 under setting [1] was less than 0.02 µM. For `CC(C)(C)CCN1C(=O)C(C2=NS(=O)(=O)c3cc(NS(C)(=O)=O)ccc3N2)=C(O)C2C3CCC(O3)C21` (racemic) [Example 13, (rac-di-exo)-N-{3-[3-(3,3-Dimethyl-butyl)-6-hydroxy-4-oxo-11-oxa-3-aza-tricyclo[6.2.1.0^2,7]undec-5-en-5-yl]-1,1-dioxo-1,4-dihydro-1λ^6-benzo[1,2,4]thiadiazin-7-yl}-methanesulfonamide], under setting [1], the IC50 lay within 0.02 to 0.1 µM.

As for `CS(=O)(=O)Nc1ccc2c(c1)S(=O)(=O)N=C(C1=C(O)C3C4CCC(O4)C3N(CCC3CC3)C1=O)N2` (racemic) [Example 23, (rac-di-exo)-N-{3-[3-(2-Cyclopropyl-ethyl)-6-hydroxy-4-oxo-11-oxa-3-aza-tricyclo[6.2.1.0^2,7]undec-5-en-5-yl]-1,1-dioxo-1,4-dihydro-1λ^6-benzo[1,2,4]thiadiazin-7-yl}-methanesulfonamide], the IC50 under setting [1] was less than 0.02 µM.

Turning to `CC(C)CCN1C(=O)C(C2=NS(=O)(=O)c3cc(NS(C)(=O)=O)ccc3N2)=C(O)C2C3CCC(O3)C21` (racemic) [Example 25, (rac-di-exo)-N-{3-[6-Hydroxy-3-(3-methyl-butyl)-4-oxo-11-oxa-3-aza-tricyclo[6.2.1.0^2,7]undec-5-en-5-yl]-1,1-dioxo-1,4-dihydro-1λ^6-benzo[1,2,4]thiadiazin-7-yl}-methanesulfonamide], the IC50 under setting [1] is less than 0.02 µM. Take `CC(C)CCN1C(=O)C(C2=NS(=O)(=O)c3cc(NS(C)(=O)=O)ccc3N2)=C(O)C2C3C=CC(C3)C21` (racemic) [Example 31, (rac-di-exo)-N-{3-[6-Hydroxy-3-(3-methyl-butyl)-4-oxo-3-aza-tricyclo[6.2.1.0^2,7]undeca-5,9-dien-5-yl]-1,1-dioxo-1,4-dihydro-1λ^6-benzo[1,2,4]thiadiazin-7-yl}-methanesulfonamide]: the IC50 under setting [1] lay in the range of 0.02 to 0.1 µM. As for `CC(C)(C)CCN1C(=O)C(C2=NS(=O)(=O)c3cc(NS(C)(=O)=O)ccc3N2)=C(O)C2C3C=CC(C3)C21` (racemic) [Example 32, (rac-di-exo)-N-{3-[3-(3,3-Dimethyl-butyl)-6-hydroxy-4-oxo-3-aza-tricyclo[6.2.1.0^2,7]undeca-5,9-dien-5-yl]-1,1-dioxo-1,4-dihydro-1λ^6-benzo[1,2,4]thiadiazin-7-yl}-methanesulfonamide], the IC50 under setting [1] was in the range of 0.02 to 0.1 µM. Take `CC(C)CCN1C(=O)C(C2=NS(=O)(=O)c3cc(I)ccc3N2)=C(O)C2C3CCC(O3)C21` (racemic) [Example 33, (rac-di-exo)-6-Hydroxy-5-(7-iodo-1,1-dioxo-1,4-dihydro-1λ^6-benzo[1,2,4]thiadiazin-3-yl)-3-(3-methyl-butyl)-11-oxa-3-aza-tricyclo[6.2.1.0^2,7]undec-5-en-4-one]: the IC50 under setting [1] lay in the range of 1 to 100 µM. On the same count and under the same terms, the figure for `CC(C)(C)CCN1C(=O)C(C2=CS(=O)(=O)c3cc(NS(C)(=O)=O)ccc3N2)=C(O)C2C3C=CC(C3)C21` (racemic) [Example 36, (rac-di-exo)-N-{3-[3-(3,3-Dimethyl-butyl)-6-hydroxy-4-oxo-3-aza-tricyclo[6.2.1.0^2,7]undeca-5,9-dien-5-yl]-1,1-dioxo-1,4-dihydro-1λ^6-benzo[1,4]thiazin-7-yl}-methanesulfonamide] is 0.02 to 0.1 µM. Take `CS(=O)(=O)Nc1ccc2c(c1)S(=O)(=O)C=C(C1=C(O)C3C4C=CC(C4)C3N(Cc3ccc(F)cc3)C1=O)N2` (racemic) [Example 37, (rac-di-exo)-N-{3-[3-(4-Fluoro-benzyl)-6-hydroxy-4-oxo-3-aza-tricyclo[6.2.1.0^2,7]undeca-5,9-dien-5-yl]-1,1-dioxo-1,4-dihydro-1λ^6-benzo[1,4]thiazin-7-yl}-methanesulfonamide]: under setting [1], the IC50 was less than 0.02 µM. On the same count and under the same terms, the result for `CC(C)CCN1C(=O)C(C2=CS(=O)(=O)c3cc(NS(C)(=O)=O)ccc3N2)=C(O)C2C3C=CC(C3)C21` (racemic) [Example 38, (rac-di-exo)-N-{3-[6-Hydroxy-3-(3-methyl-butyl)-4-oxo-3-aza-tricyclo[6.2.1.0^2,7]undeca-5,9-dien-5-yl]-1,1-dioxo-1,4-dihydro-1λ^6-benzo[1,4]thiazin-7-yl}-methanesulfonamide] reads 0.02 to 0.1 µM.
